Laboratory results reported in patent US12673956B2, “Oxadiazolyl dihydropyrano[2,3-b]pyridine inhibitors of HIPK2 for treating kidney fibrosis” (ICAHN SCHOOL OF MEDICINE AT MOUNT SINAI, priority 2021, dated 2026).
Like-named read-outs stand apart in the source and are kept apart here.

Legend:
[1] = test system: TGF/SMAD Signaling Pathway SBE Reporter—HEK293 Cell Line; experiment: Luciferase screen, TGF/SMAD SBE reporter HEK293 cells stimulated with TGFβ; format: cell-based; conditions: Homo sapiens
Method: For the data in Table 1, the Bight-Glo™ Luciferase Assay System from Promega was used with TGF/SMAD Signaling Pathway SBE Reporter—HEK293 Cell Line from BPSbioscience. On day 1 SBE reporter-HEK293 cells were seeded at a density of 25,000 cells per well into a white clear-bottom 96-well microplate in 100 μl of growth medium without geneticin. The plate was incubated at 37° C. in a CO2 incubator for 24 hrs. The wells were renewed with 60 μL assay medium and treated with test compounds by adding 5 μL of compounds in medium. The concentration of test compound in medium is adjusted so that 5 μL will provide the desired molarity of the solution. For example, if the desired test concentration is 30 µM, then 5 μL of […] compound is added. After 4 hours, TGFβ was added to 10 ng/mL. The plate was incubated at 37° C. in a CO2 incubator overnight (18 hours). One hour prior to assay all medium was replaced. The luciferase assay was run using ONE-Step™ Luciferase Assay System by adding 100 al of ONE-Step™ Luciferase reagent per well, rocking at room temperature for ~15 to 30 minutes and measuring luminescence using a luminometer. The signals were normalized to percentage inhibition, with non-TGF treated cells as 100% inhibition, and the data were processed by Graphpad Prism.

[2] = test system: Tg26 mice; experiment: Tg26 mice, model of HIV-associated nephropathy (chronic kidney disease); format: in vivo
From the text: (§1) Activity of compounds of the invention was confirmed in vivo. Two chronic kidney disease models were employed: (1) Tg26 mice, a model of HIV-associated nephropathy, and (2) Col4a3-null mice, a model of Alport syndrome. Both CKD models are characterized by advanced glomerulosclerosis and tubulointerstitial fibrosis, leading to kidney failure and death approximately between 12 and 20 weeks of age.
Tg26 mice of FVB/N genetic background bearing a defective HIV-1 provirus lacking gag-pol have been described by Feng et al. [J Am Soc Nephrol 2009; 20: 2138-2146]. Six-week old heterozygous Tg26 mice are used. Wildtype littermates are used as controls. Mice in the treatment group receive test compound dissolved in 20% NMP, 60% PEG400, and 20% H2O by oral gavage at a dose of 30, 60, or 90 mg/kg body weight per day. Mice in the control group receive the same volume of vehicle. The mice are treated for a total of 4 weeks and sacrificed at age of 10 weeks. […] In another trial, 5- to 6-week old Tg26 mice were treated with Example 13 (90 mg/kg daily, PO) or vehicle for 4 weeks: 38% (8/21 mice) died of kidney failure in the control group within the experimental duration; 0% died in the HIPK2i-174 group (0/18 mice). […] [Because of significant inter-variability of baseline UACR in Tg26 mice at 5-6 weeks of age, the therapeutic effect is calculated based on fold change to baseline for each mouse.]

[3] = test system: Col4a3-deficient mice; experiment: Col4a3-deficient mice, model of Alport syndrome (chronic kidney disease); format: in vivo; conditions: 60 mg/kg daily PO
Method: as §1
Three-week old Col4a3-deficient mice were treated with Example 13 (60 mg/kg daily, PO) or vehicle for 6 weeks. The median survival in vehicle group was 56 days, which was increased to 68 days in the treated group (21% increase).

[4] = SBE reporter-HEK293 cells, TGFβ 10 ng/mL, 18 hours, read-out: Luciferase IC50
[5] = HEK293, 18 h, read-out: Luciferase IC50 nM
[6] = another trial, 90 mg/kg daily PO, 4 weeks
[7] = first trial, four-week treatment, n=8
[8] = first trial, four-week treatment, vs. vehicle

CC1(C)Oc2ncc(-c3nc(-c4cccc(Cl)c4)no3)cc2C[C@@H]1O [Example 30, (S)-6-(3-(3-chlorophenyl)-1,2,4-oxadiazol-5-yl)-2,2-dimethyl-3,4-dihydro-2H-pyrano[2,3-b]pyridin-3-ol]
IC50 [1, 4]: 136 nM

Cc1cc(-c2noc(-c3cnc4c(c3)C[C@H](O)C(C)(C)O4)n2)ccc1Cl [Example 36, (3S)-6-[3-(4-chloro-3-methyl-phenyl)-1,2,4-oxadiazol-5-yl]-2,2-dimethyl-3,4-dihydropyrano[2,3-b]pyridin-3-ol]
IC50 [1, 5]: 52 nM

CC1(C)Oc2ncc(-c3nc(-c4cccc(Cl)c4)no3)cc2C[C@H]1O [Example 31, (R)-6-(3-(3-chlorophenyl)-1,2,4-oxadiazol-5-yl)-2,2-dimethyl-3,4-dihydro-2H-pyrano[2,3-b]pyridin-3-ol]
IC50 [1, 4]: 152 nM

CC1(C)Oc2ncc(-c3nc(-c4ncco4)no3)cc2C[C@@H]1O [Example 32, (S)-2,2-dimethyl-6-(3-(oxazol-2-yl)-1,2,4-oxadiazol-5-yl)-3,4-dihydro-2H-pyrano[2,3-b]pyridin-3-ol]
IC50 [1, 5]: 65 nM

CC1(C)Oc2ncc(-c3nc(-c4ccc(Cl)cc4)no3)cc2CC1O (stereo in doubt) [Example 12, (R)-6-(3-(4-chlorophenyl)-1,2,4-oxadiazol-5-yl)-2,2-dimethyl-3,4-dihydro-2H-pyrano[2,3-b]pyridin-3-ol]
IC50 [1, 4]: 89 nM

CC1(C)Oc2ncc(-c3nc(-c4ccc(Cl)cc4)no3)cc2CC1O (stereo in doubt) [Example 13, (S)-6-(3-(4-chlorophenyl)-1,2,4-oxadiazol-5-yl)-2,2-dimethyl-3,4-dihydro-2H-pyrano[2,3-b]pyridin-3-ol]
IC50 [1, 4]: 156 nM
reduction in kidney fibrosis (picrosirius red staining) in comparison to vehicle group [2, 6]: ~ 37%
reduction of urinary albumin-to-creatinine ratio from baseline values [2, 6]: ~ 57%
urinary albumin-to-creatinine ratio, fold change to baseline ([2]; another trial, 90 mg/kg daily PO, 4 weeks, n=17): 0.43±0.28
kidney fibrosis assessed by picrosirius red histological staining ([2]; another trial, 90 mg/kg daily PO, 4 weeks, n=18): 2.8±1.2%
died of kidney failure within the experimental duration ([2]; another trial, 5- to 6-week old Tg26 mice, 90 mg/kg daily PO, 4 weeks, 0/18 mice): 0%
Hazard ratio comparing vehicle vs. treatment ([2]; first trial, four-week treatment, Log-rank Mantel-Cox test): 7.2
average fold change in urinary albumin-to-creatinine ratio from week 0 to week 4 [2, 7]: 0.352
renal fibrosis, average % area [2, 7]: 2.540%
reduction in average fold change in urinary albumin-to-creatinine ratio [2, 8]: ~ 65%
reduction in renal fibrosis area [2, 8]: ~ 43%
survival ([2]; first trial, six-week old Tg26 mice, oral gavage 30, 60, or 90 mg/kg per day, four-week treatment, n=20): 100%
increase of median survival vs. vehicle group ([3]; 6 weeks): 21%
reduction in kidney fibrosis (picrosirius red staining) in comparison to vehicle group ([3]; 6 weeks): ~ 51%
kidney fibrosis assessed by picrosirius red histological staining ([3]; 6 weeks, n=9): 13.7±6.3%
reduction of urinary albumin-to-creatinine ratio vs. vehicle ([3]; after 6 weeks of treatment): ~ 45%
urinary albumin-to-creatinine ratio ([3]; after 6 weeks of treatment): 41.4 ± 14.2 mg/mg
median survival ([3]; three-week old mice, 6 weeks): 68 days
